Reference: ChEMBL document CHEMBL3430912, “GSK Tres Cantos Anti-Kinetoplastid Screening (TCAKS) Data”

What was measured:
Trypanosoma cruzi [1] = test: GSK_TCAKS: pIC50 Trypanosoma cruzi viability assay using beta-GAL activity. This assay was run at single shot at 5uM compound concentration per well. The biological reagents consisted of NIH-3T3 host cells and trypomastigotes parasitic cells; both cell types were set to a 3.3 * 10^5 cells/mL dilution in assay DMEM by means of a CASY cell counter device using a 60um capillary. 6 uL of the mixture were dispensed per well (about 1 * 10^3 host-cells and 1 * 10^3 parasites) with a Multidrop Combi dispenser. […] In all wells, the percentage of DMSO never exceeded 0.5%. Plates incubated for four days at 37C, 5% CO2. The substrate used for the assay fluorescence intensity (FLINT) readout was resorufin-beta-D-galactopiranoside (Sigma-Aldrich) at 5uM per well. It was diluted in PBS supplemented with the soft detergent Igepal (Fluka).; assay type: functional, organism-based, Mus musculus; conditions: Tulahuen, NIH3T3
Trypanosoma cruzi [2] = test: (§1) GSK_TCAKS: pIC50 Trypanosoma cruzi Imaging: Infected Cells. […] Cells were then washed once with PBS before infection. T. cruzi trypomastigotes, collected at days 5 to 8 after infection from LLC-MK2 parasite infected cultures, were allowed to swim out for 4h at 37C from a centrifuged pellet (2,500 rpm/10 min/room temperature). Trypomastigotes were then collected and counted in a CASY Cell Counter. Trypomastigotes, in supplemented DMEM, were added to H9c2 cultures in a multiplicity of infection of 1 and incubated for 18 h. Cells were washed once with PBS before incubation of the infected H9c2 monolayer with trypsin (Life-Technologies) to detach cells from the flask. Cells were counted in a CASY Cell Counter using a 150 um capillary and their density set at 5 * 10^4 cells per mL in supplemented assay DMEM. Infected H9c2 were dispensed into 384-well poly-lysine coated assay plates at 50uL per well using a Multidrop Combi dispenser. After seeding them, the plates were incubated at 37C, 5% CO2 for 72h. Cultures were then fixed and stained by addition of 50 uL of a solution containing 8% formaldehyde and 4 uM DRAQ5 DNA dye (BioStatus, UK) per well. […] Five images were collected per well for reliable statistical analysis. Automated image analysis was performed with a script developed on Acapella High Content Imaging and Analysis Software (PerkinElmer). Output: percentage of infected cells per well as a second infection marker.; assay type: functional, organism-based, Rattus norvegicus; conditions: H9c2, 4 h
Trypanosoma cruzi [3] = test: GSK_TCAKS: pIC50 Trypanosoma cruzi Imaging: Amastigotes/Cell. […] Cells were then washed once with PBS before infection. T. cruzi trypomastigotes, collected at days 5 to 8 after infection from LLC-MK2 parasite infected cultures, were allowed to swim out for 4h at 37C from a centrifuged pellet (2,500 rpm/10 min/room temperature). Trypomastigotes were then collected and counted in a CASY Cell Counter. Trypomastigotes, in supplemented DMEM, were added to H9c2 cultures in a multiplicity of infection of 1 and incubated for 18 h. Cells were washed once with PBS before incubation of the infected H9c2 monolayer with trypsin (Life-Technologies) to detach cells from the flask. Cells were counted in a CASY Cell Counter using a 150 um capillary and their density set at 5 * 10^4 cells per mL in supplemented assay DMEM. Infected H9c2 were dispensed into 384-well poly-lysine coated assay plates at 50uL per well using a Multidrop Combi dispenser. After seeding them, the plates were incubated at 37C, 5% CO2 for 72h. Cultures were then fixed and stained by addition of 50 uL of a solution containing 8% formaldehyde and 4 uM DRAQ5 DNA dye (BioStatus, UK) per well. […] Five images were collected per well for reliable statistical analysis. Automated image analysis was performed with a script developed on Acapella High Content Imaging and Analysis Software (PerkinElmer). Output: number of amastigotes per cell as infection level measurement.; assay type: functional, organism-based, Rattus norvegicus; conditions: H9c2, 4 h
Trypanosoma cruzi [4] = test: as §1, with “H2C9” for “Trypanosoma cruzi”, “H9c2 Host Cardiomyocytes.” for “Infected Cells.”, “Number” for “percentage”, “H9c2 Host Cardiomyocytes nuclei to determine drug-related cytotoxicity.” for “infected cells per well as a second infection marker.”; assay type: functional, organism-based, Rattus norvegicus; conditions: H9c2, 4 h
Leishmania donovani [5] = test: GSK_TCAKS: pIC50 Leishmania donovani viability assay using fluorescence intensity. Assay plates (1536-well) were prepared by adding 30nL per well of compound. For single shot assay, the final compound concentration was 5uM. […] Briefly, eGFP LdBOB axenic amastigotes were harvested, fixed and counted in a CASY cell counter (Roche-Applied Science). A final concentration of 1.5 * 10^5 cells per well were prepared in amastigote media containing 500 U/mL penicillin/streptomycin (Invitrogen) and 6uL was dispensed to each experimental well using a Multidrop Combi dispenser (Thermo Scientific). 6uL of assay media was dispensed to control columns used as reference for 100% compound response. Following incubation for 72 h at 37C, 5% CO2, 2 uL of resazurin was added to each well at a final concentration of 0.5 mM in phosphate buffered saline (PBS) with IGEPAL (Sigma-Aldrich), 0.05% (v/v).; assay type: functional, organism-based
Leishmania donovani [6] = test: (§2) GSK_TCAKS: pIC50 Leishmania donovani Imaging: Infected Macrophages. Assay plates (384-well) were prepared by adding 250nL of compound to each well. For single shot assay, the final compound concentration was 5 uM. […] Automated image analysis was performed with a script developed on Acapella High Content Imaging and Analysis Software (PerkinElmer). Output: Percent of infected macrophage cells were reported for each well.; assay type: functional, organism-based, Homo sapiens; conditions: THP-1
Leishmania donovani [7] = test: as §2, with “Amastigotes/Macrophages.” for “Infected Macrophages.”, “Average number” for “Percent”, “amastigotes per” for “infected”, “cell” for “cells”; assay type: functional, organism-based, Homo sapiens; conditions: THP-1
Leishmania donovani [8] = test: as §2, with “THP-1 Host” for “Infected”, “THP-1 cell count” for “Percent of infected macrophage cells”; assay type: functional, organism-based, Homo sapiens
[9] = test system: Trypanosoma brucei brucei; test: GSK_TCAKS: pIC50 Trypanosoma brucei viability assay using fluorescence intensity. Assay plates (1536-well) were prepared by dispensing 25nL of compound solution per well using an Echo acoustic dispenser (Labcyte).; assay type: functional, organism-based; conditions: Lister 427, 2 h
[10] = test system: Trypanosoma brucei brucei; test: GSK_TCAKS: pIC50 Trypanosoma brucei viability assay using luminiscence. Assay plates (1536-well) were prepared. T. brucei cultures were harvested and counted in a CASY cell counter. A parasite suspension was prepared at a final concentration of 5 * 10^4 cells/mL in complete HMI9 medium and 6uL was dispensed to all wells containing compounds using a Multidrop Combi dispenser. 6uL of HMI9 media with 0.4% DMSO were dispensed to control columns. Plates were incubated for 24 h at 37C, 5% CO2 then tempered for 10 min at room temperature. ATP content was quantified by adding 4 uL of CellTiter-Glo Reagent (Promega) according to the manufacturer's instructions. Luminescence was measured using a ViewLux.; assay type: functional, organism-based; conditions: Lister 427, CASY
[11] = GSK_TCAKS: pIC50 HepG2 human cell line viability assay using luminiscence. […] Seeding density was checked to ensure that new mono-layers were not more than 50% confluent at the time of harvesting. Cell suspension was added to 500 mL of the same medium at a final density of 1.2 * 10^5 cells/mL. This cell suspension was dispensed (25 uL, 3000 cells per well) into 384-well clear-bottom plates using a Multidrop Combi dispenser. Prior to addition of the cell suspension, the screening compounds (250 nL) were pre-dispensed into the plates with an Echo liquid handler. Plates were incubated for 48 h at 37C, 5% CO2. After incubation, plates equilibrated at room temperature for 30 min before proceeding to develop the luminescent signal. The signal developer, CellTiter-Glo Reagent, was allowed to equilibrate at room temperature for 30 min and added to the plates (25uL per well) using a Multidrop Combi dispenser. Plates were left for 10 min at room temperature for stabilization and then read using a ViewLux.; assay type: toxicity, cell-based
[12] = molecular target: Sterol 14-alpha demethylase (Trypanosoma cruzi (strain CL Brener), UniProt Q7Z1V1); test: GSK_TCAKS: pIC50 CYP51 from Trypanosoma cruzi.; assay type: functional
Sequence of Sterol 14-alpha demethylase (Q7Z1V1 whole entry): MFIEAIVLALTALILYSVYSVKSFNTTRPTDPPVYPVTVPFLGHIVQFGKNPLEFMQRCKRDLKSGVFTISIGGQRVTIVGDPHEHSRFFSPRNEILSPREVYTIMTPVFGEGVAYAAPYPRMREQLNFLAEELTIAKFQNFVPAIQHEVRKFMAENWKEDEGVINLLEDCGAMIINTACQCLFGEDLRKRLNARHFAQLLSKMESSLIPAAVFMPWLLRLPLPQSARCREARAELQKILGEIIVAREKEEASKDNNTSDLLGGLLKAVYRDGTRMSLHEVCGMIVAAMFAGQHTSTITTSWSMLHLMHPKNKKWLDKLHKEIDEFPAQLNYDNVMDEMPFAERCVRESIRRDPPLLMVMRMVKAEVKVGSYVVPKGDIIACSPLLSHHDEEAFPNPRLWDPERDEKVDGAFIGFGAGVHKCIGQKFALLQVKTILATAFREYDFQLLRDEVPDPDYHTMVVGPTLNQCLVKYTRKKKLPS

Compound | IC50 (Trypanosoma cruzi [1]) [µM] | IC50 (Trypanosoma cruzi [2]) [µM] | IC50 (Trypanosoma cruzi [3]) [µM] | IC50 (Trypanosoma cruzi [4]) [µM] | IC50 (Leishmania donovani [5]) [µM] | IC50 (Leishmania donovani [6]) [µM] | IC50 (Leishmania donovani [7]) [µM] | IC50 (Leishmania donovani [8]) [µM] | IC50 [9] [µM] | IC50 [10] [µM] | IC50 at 48 h [11] [µM] | IC50 [12] [µM]
Cc1nn2c(O)c3c(nc2c1-c1ccc(F)cc1)CCCC3 | 1.58 | 2 | 0.794 | > 50.1 | 1.26 | > 50.1 | > 50.1 | > 50.1 | 0.398 | 0.631 | > 100 | > 100
c1ccc(Nc2nc3ccccc3[nH]2)nc1 | 7.94 | 25.1 | 10 | 10 | 25.1 | 7.94 | 7.94 | 25.1 | 15.8 | 25.1 | 79.4 | > 100
CN(CC1CCCO1)S(=O)(=O)c1ccc(C(=O)Nc2nc(-c3ccccn3)cs2)cc1 (centres undefined) | 1.58 | 2 | 1.26 | 20 | 1.26 | 6.31 | 3.16 | 7.94 | 0.501 | 0.631 | 63.1 | 7.94
CC(C)(C)Nc1nc(-c2ccccn2)nc2ccccc12 | 1.26 | 2 | 1.26 | 0.316 | 6.31 | 1.58 | 1.26 | 15.8 | 6.31 | 6.31 | 20 | > 100
Cc1cccc(Nc2nc(-c3ccccn3)cs2)n1 | 0.631 | 1 | 0.794 | 0.631 | 3.98 | 3.16 | 2 | > 50.1 | 1 | 0.501 | 39.8 | 20
COc1ccc(Nc2nc(-c3ccccn3)cs2)c(OC)c1 | 3.98 | 7.94 | 5.01 | 2 | 6.31 | 2.51 | 2 | > 50.1 | 20 | 25.1 | > 100 | 20
O=C1COC(c2ccccc2)(c2ccccc2)CN1C1CCN(Cc2ccc(-n3ccnc3)cc2)CC1 | 1.58 | 2 | 0.501 | 31.6 | 31.6 | 15.8 | 12.6 | 15.8 | 0.794 | 1 | 50.1 | 0.0794
CC(=O)Nc1ccc(CN2CCC(N3CC(c4ccccc4)(c4ccccc4)OCC3=O)CC2)cc1 | 12.6 | 31.6 | 20 | > 50.1 | 0.501 | 25.1 | 20 | 39.8 | 0.316 | 0.398 | 79.4 | > 100
CCc1ccccc1[C@@H](C)NC(=O)c1cnc2c(cnn2CC)c1NC1CCN(C(N)=O)CC1 | 25.1 | > 50.1 | 39.8 | > 50.1 | > 50.1 | > 50.1 | > 50.1 | > 50.1 | 0.251 | 0.501 | > 100 | 79.4
COC(=O)c1ccc(-c2cnc3ccc(NCc4ccccn4)nn23)cc1 | 7.94 | 7.94 | 5.01 | > 50.1 | 12.6 | > 50.1 | 15.8 | 12.6 | 0.631 | 1 | 100 | 1.26
O=C(Nc1cccc(S(=O)(=O)Nc2ccc(Br)cc2)c1)c1ccc([N+](=O)[O-])s1 | 0.1 | 0.126 | 0.1 | 2.51 | 0.794 | 1 | 0.794 | 10 | 0.2 | 0.398 | 15.8 | 2.51
CCc1cccc(CC)c1-n1c(SCC(=O)N2CC(=O)Nc3ccccc32)nnc1-c1cccnc1 | 25.1 | 31.6 | 25.1 | > 50.1 | 39.8 | > 50.1 | > 50.1 | > 50.1 | 0.501 | 1 | > 100 | 3.16
COc1ccc(C2C3CCCCC3(O)CCN2CC(=O)Nc2ccc(Cl)cc2Cl)cc1 (centres undefined) | 2.82 | 1.26 | 0.794 | 20 | 1.58 | 2.51 | 0.794 | > 50.1 | 7.94 | 25.1 | > 100 | 10
O=C(CN1CCC2(O)CCCCC2C1c1ccc2c(c1)OCO2)Nc1ccc(Cl)cc1Cl (centres undefined) | 12.6 | 5.01 | 3.16 | > 50.1 | 5.01 | 3.16 | 1.26 | > 50.1 | 12.6 | 7.94 | > 100 | 12.6
CC1CCCN(S(=O)(=O)c2ccc(C(=O)Nc3nc(-c4ccccn4)cs3)cc2)C1 (centres undefined) | 0.398 | 0.501 | 0.251 | 3.16 | 1.58 | 0.251 | 0.158 | 5.01 | 0.2 | 0.398 | 39.8 | 2.51
NC(=O)c1ccsc1NC(=O)c1ccc([N+](=O)[O-])s1 | 0.0794 | 0.126 | 0.1 | > 50.1 | 0.316 | 1.58 | 1.26 | 12.6 | 0.2 | 1.58 | > 100 | > 100
COc1ccc(OC)c(NC(=O)c2ccc([N+](=O)[O-])o2)c1 | 3.16 | 12.6 | 7.94 | 3.98 | 25.1 | 31.6 | 15.8 | 20 | 0.0158 | 0.0631 | 20 | 10
